What was measured:
[1] = Evaluation of solubility in organic solvents (saturated solution after reflux, cooling to room temperature, filtration, drying); assay type: physicochemical; settings: reflux 10 minutes, cooled to room temperature, stand 16 hours, 0.2-μm PTFE filter
Protocol: Add each of the compounds obtained in the above Examples 1-6 to each of toluene, THF, and chloroform until it gets undissolved. Agitate each solution for 10 minutes under solvent reflux, then cool it to room temperature, further agitate it for 1 hour, and allow it to stand for 16 hours. Filter the supernatant liquid with a 0.2-μm PTFE filter to obtain a saturated solution. Dry the solution under reduced pressures to calculate solubility of each compound against each solvent. Evaluation criteria are as follows.
A: Solubility is 0.5% by weight or more.
B: Solubility is 0.05% by weight or more and less than 0.5% by weight.
C: Solubility is 0.005% by weight or more and less than 0.05% by weight.
D: Solubility is less than 0.005% by weight.

[2] = Thermogravimetric measurement of the elimination reaction (EXSTAR 6200, nitrogen atmosphere); assay type: physicochemical; settings: observed within 190 to 210° C.
Protocol: (§1) Put the above-prepared substituent-eliminable derivative No. 6 (5 mg, 0.10 mmol) in an aluminum pan and heat it to 300° C. at a rate of 10° C./min with a thermal analysis instrument (EXSTAR 6200 from Seiko Instruments Inc.) under nitrogen atmosphere. Thus, a dark purple solid (3.8 mg) is obtained. m/z=704.1 (M+H).
as §1, with “No. 9” for “No. 6”, “mg, […]” for “mg, 0.10 mmol)”, “to 250°” for “to 300°”, “of 20°” for “of 10°”, “(M+H). The thermogravimetric measurement result is shown in FIG. 3.” for “(M+H).”
Repeat the procedures in Example 4 except for replacing the substituent-eliminable derivative No. 6 with No. 16 (5 mg, 4.6 μmol). Thus, a dark purple specific compound (4.2 mg) is obtained. m/z=872.2 (M+H).

[3] = heated to 300° C. at 10° C./min

Decrease in weight (thermogravimetric) [2, 3] | Decrease in weight (thermogravimetric) ([2]; heated to 250° C. at 20° C./min) | Compound | Solubility in THF [1] | Solubility in Chloroform [1] | Solubility in Toluene [1]
 |  | CCCCC(CC)CN1C(=O)C2=C(c3ccc(-c4ccc(O)cc4)s3)N(CC(CC)CCCC)C(=O)C2=C1c1ccc(-c2ccc(O)cc2)s1 (stereo not drawn) [Specific Compound No. 6] | D (Solubility is less than 0.005% by weight.) | D (Solubility is less than 0.005% by weight.) | D (Solubility is less than 0.005% by weight.)
 |  | CCCCC(CC)CN1C(=O)C2=C(c3ccc(-c4cccc(O)c4)s3)N(CC(CC)CCCC)C(=O)C2=C1c1ccc(-c2cccc(O)c2)s1 (stereo not drawn) [Specific Compound No. 9] | D (Solubility is less than 0.005% by weight.) | D (Solubility is less than 0.005% by weight.) | D (Solubility is less than 0.005% by weight.)
 |  | CCCCC(CC)CN1C(=O)C2=C(c3ccc(-c4ccc(-c5cccc(O)c5)s4)s3)N(CC(CC)CCCC)C(=O)C2=C1c1ccc(-c2ccc(-c3cccc(O)c3)s2)s1 (stereo not drawn) [Specific Compound No. 16] | D (Solubility is less than 0.005% by weight.) | D (Solubility is less than 0.005% by weight.) | D (Solubility is less than 0.005% by weight.)
21.5% |  | CCCCC(CC)CN1C(=O)C2=C(c3ccc(-c4ccc(OC(=O)OC(C)(C)C)cc4)s3)N(CC(CC)CCCC)C(=O)C2=C1c1ccc(-c2ccc(OC(=O)OC(C)(C)C)cc2)s1 (stereo not drawn) [Substituent-eliminable Derivative No. 6] | A (Solubility is 0.5% by weight or more.) | A (Solubility is 0.5% by weight or more.) | B (Solubility is 0.05% by weight or more and less than 0.5% by weight.)
 | 21.2% | CCCCC(CC)CN1C(=O)C2=C(c3ccc(-c4cccc(OC(=O)OC(C)(C)C)c4)s3)N(CC(CC)CCCC)C(=O)C2=C1c1ccc(-c2cccc(OC(=O)OC(C)(C)C)c2)s1 (stereo not drawn) [Substituent-eliminable Derivative No. 9] | A (Solubility is 0.5% by weight or more.) | A (Solubility is 0.5% by weight or more.) | A (Solubility is 0.5% by weight or more.)
18.5% |  | CCCCC(CC)CN1C(=O)C2=C(c3ccc(-c4ccc(-c5cccc(OC(=O)OC(C)(C)C)c5)s4)s3)N(CC(CC)CCCC)C(=O)C2=C1c1ccc(-c2ccc(-c3cccc(OC(=O)OC(C)(C)C)c3)s2)s1 (stereo not drawn) [Substituent-eliminable Derivative No. 16] | A (Solubility is 0.5% by weight or more.) | A (Solubility is 0.5% by weight or more.) | A (Solubility is 0.5% by weight or more.)

— US9590187B2, “Substituent-eliminable diketopyrrolopyrrole derivative, organic semiconductor material precursor solution, organic semiconductor material, and organic semiconductor material film” (RICOH COMPANY, LTD., priority 2013, dated 2017)
